From patent US10399948B2, “Negative allosteric modulators of metabotropic glutamate receptor 3” (Vanderbilt University, priority 2015, dated 2019)

Tests used:
[1] = molecular target: rat mGlu3 (Rattus norvegicus (Rat), UniProt P31422); assay: mGlu3 Ca2+ flux assay; assay type: cell-based; conditions: for IC50: NAM, glutamate EC80, >10,000 = decrease without plateau, >30,000 = no measurable activity; for remaining activity at 30 µM: response at 30 μM test compound as percentage of maximal response to glutamate, read-out: rat mGlu3 Glu max (%)
Sequence of rat mGlu3 (P31422 23-879): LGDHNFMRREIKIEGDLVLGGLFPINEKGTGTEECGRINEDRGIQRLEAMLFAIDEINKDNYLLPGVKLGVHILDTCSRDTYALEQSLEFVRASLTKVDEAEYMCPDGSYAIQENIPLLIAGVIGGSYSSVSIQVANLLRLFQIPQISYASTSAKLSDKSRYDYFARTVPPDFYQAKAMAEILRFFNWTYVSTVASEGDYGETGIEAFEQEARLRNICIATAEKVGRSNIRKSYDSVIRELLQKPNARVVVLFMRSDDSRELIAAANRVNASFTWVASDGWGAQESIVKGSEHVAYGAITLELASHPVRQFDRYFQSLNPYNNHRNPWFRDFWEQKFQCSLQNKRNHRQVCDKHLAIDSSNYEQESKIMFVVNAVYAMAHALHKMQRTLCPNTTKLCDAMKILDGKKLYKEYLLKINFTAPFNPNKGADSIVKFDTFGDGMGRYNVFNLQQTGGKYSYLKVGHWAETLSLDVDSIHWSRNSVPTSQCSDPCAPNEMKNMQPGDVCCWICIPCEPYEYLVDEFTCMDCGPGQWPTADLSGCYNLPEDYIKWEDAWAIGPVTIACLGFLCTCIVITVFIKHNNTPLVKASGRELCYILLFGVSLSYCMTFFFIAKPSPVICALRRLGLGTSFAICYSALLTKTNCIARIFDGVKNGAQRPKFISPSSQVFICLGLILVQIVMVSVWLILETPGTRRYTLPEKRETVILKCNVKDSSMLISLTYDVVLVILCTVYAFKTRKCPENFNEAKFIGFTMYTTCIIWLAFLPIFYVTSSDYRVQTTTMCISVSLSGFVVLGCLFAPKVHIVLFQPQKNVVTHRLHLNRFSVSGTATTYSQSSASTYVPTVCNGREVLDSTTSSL
Protocol: Gα15/TREx cells stably expressing rat mGlu3 were plated in black-walled, clear-bottomed, poly-D-lysine coated 384-well plates in 20 μL of assay medium (DMEM containing 10% dialyzed FBS, 20 mM HEPES, 25 ng/mL tetracycline, 100 units/mL penicillin/streptomycin plus 250 ng/mL Fungizone, and 1 mM sodium pyruvate) at a density of 15K cells/well. The cells were grown overnight at 37° C. in the presence of 5% CO2. […] Dye was removed, 20 μL of assay buffer was added, and the plate was incubated for 10 minutes at room temperature.
(§1) Ca^2+ flux was measured using the Functional Drug Screening System (FDSS7000, Hamamatsu, Japan). After establishment of a fluorescence baseline for about 3 seconds, the compounds of the present invention were added to the cells, and the response in cells was measured. 2.3 minutes later an EC20 concentration of the mGlu3 receptor agonist glutamate was added to the cells, and the response of the cells was measured for 1.9 minutes; an EC80 concentration of agonist was added and readings taken for an additional 1.7 minutes. All test compounds were dissolved and diluted to a concentration of 10 mM in 100% DMSO. Compounds were then serially diluted 1:3 in DMSO into 10 point concentration response curves, transferred to daughter plates, and further diluted into assay buffer to a 2× stock. Calcium fluorescence measures were recorded as fold over basal fluorescence; raw data was then normalized to the maximal response to glutamate.
(§2) The raw data file containing all time points was used as the data source in the analysis template. This was saved by the FDSS as a tab-delimited text file. Data were normalized using a static ratio function (F/F0) for each measurement of the total 360 values per well divided by each well's initial value. Data were then reduced to peak amplitudes (Max−Initial Min) using a time range that starts approximately 3 seconds prior to the glutamate EC80 addition and continues for approximately 90 seconds. This is sufficient time to capture the peak amplitude of the cellular calcium response. Individual amplitudes were expressed as % EMax by multiplying each amplitude by 100 and then dividing the product by the mean of the amplitudes derived from the glutamate ECMax-treated wells. EC50 values for test compounds were generated by fitting the normalized values versus the log of the test compound concentration (in mol/L) using a 4 parameter logistic equation where none of the parameters were fixed. Each of the three values collected at each concentration of test compound were weighted evenly.

[2] = molecular target: rat mGlu2 (Rattus norvegicus (Rat), UniProt P31421); assay: mGlu2 Ca2+ flux assay; assay type: cell-based; conditions: NAM, glutamate EC80; >30,000 = no measurable activity
Sequence of rat mGlu2 (P31421 19-872): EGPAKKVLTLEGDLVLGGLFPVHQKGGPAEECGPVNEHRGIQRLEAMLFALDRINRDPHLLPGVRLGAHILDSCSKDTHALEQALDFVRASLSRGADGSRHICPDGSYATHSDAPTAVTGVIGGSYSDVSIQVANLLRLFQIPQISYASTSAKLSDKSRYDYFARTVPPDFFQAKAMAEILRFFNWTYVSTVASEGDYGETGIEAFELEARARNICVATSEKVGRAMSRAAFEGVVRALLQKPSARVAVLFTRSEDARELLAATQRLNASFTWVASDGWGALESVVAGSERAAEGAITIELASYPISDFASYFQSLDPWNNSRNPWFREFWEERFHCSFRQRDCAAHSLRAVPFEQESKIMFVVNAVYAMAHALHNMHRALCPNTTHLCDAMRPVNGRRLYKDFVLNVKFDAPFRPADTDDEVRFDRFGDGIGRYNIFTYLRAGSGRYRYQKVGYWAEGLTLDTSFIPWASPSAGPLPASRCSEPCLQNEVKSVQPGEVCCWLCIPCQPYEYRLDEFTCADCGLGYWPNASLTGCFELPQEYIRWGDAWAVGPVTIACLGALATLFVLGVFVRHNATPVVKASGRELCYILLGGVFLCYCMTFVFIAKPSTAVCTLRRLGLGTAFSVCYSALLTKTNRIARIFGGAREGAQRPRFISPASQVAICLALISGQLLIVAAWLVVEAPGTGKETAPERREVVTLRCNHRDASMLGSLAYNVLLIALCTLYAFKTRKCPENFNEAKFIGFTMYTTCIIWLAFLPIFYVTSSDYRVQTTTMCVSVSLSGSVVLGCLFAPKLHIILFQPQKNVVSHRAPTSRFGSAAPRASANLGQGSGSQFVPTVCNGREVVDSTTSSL
Protocol: Gα15 HEK293 cells stably expressing rat mGlu2 were plated in black-walled, clear-bottomed, poly-D-lysine coated 384-well plates in 20 μL of assay medium (DMEM containing 10% dialyzed FBS, 20 mM HEPES, and 1 mM sodium pyruvate) at a density of 12K cells/well. The cells were grown overnight at 37° C. in the presence of 5% CO2. The next day, medium was removed and the cells incubated with 20 μL of […] Fluo-4, AM prepared as a 2.3 mM stock in DMSO and mixed in a 1:1 ratio with 10% (w/v) pluronic acid F-127 and diluted in assay buffer (Hank's balanced salt solution, 20 mM HEPES, and 2.5 mM probenecid) for 45 minutes at 37° C. Dye was removed, 20 μL of assay buffer was added, and the plate was incubated for 5 minutes at room temperature.
as §1, with “mGlu2” for “mGlu3”
as §2, with “ECMax” for “EMax”, “IC50” for “EC50”

| Compound | IC50 [1] [µM] | IC50 [2] [µM] | remaining activity at 30 µM [1] [%] |
| --- | --- | --- | --- |
| O=c1cc(OCC[S+]([O-])c2ccccc2)ccn1-c1ccc(F)cc1 (stereo not drawn) [Compound 8, 1-(4-fluorophenyl)-4-(2-(phenylsulfinyl)ethoxy)pyridin-2(1H)-one] | > 30 |  |  |
| O=c1cc(OCCOc2cccc(Cl)n2)ccn1-c1ccc(F)cc1 [Compound 53, 4-(2-((6-chloropyridin-2-yl)oxy)ethoxy)-1-(4-fluorophenyl)pyridin-2(1H)-one] | 4.27 | > 30 | -1.66 |
| O=c1cc(OCCOc2ccccc2)ccn1-c1ccc(F)nc1 [Compound 25, 6′-fluoro-4-(2-phenoxyethoxy)-2H-[1,3′-bipyridin]-2-one] | 6.75 | > 30 | -2.95 |
| O=c1cc(OCCOCc2ccccc2)ccn1-c1ccc(F)cc1 [W, 4-(2-(Benzyloxy)ethoxy)-1-(4-fluorophenyl)pyridin-2(1H)-one] | 13 |  | 14.5 |
| O=c1cc(OCCOc2ccccc2)ccn1-c1ccccc1F [Compound 10, 1-(2-Fluorophenyl)-4-(2-phenoxyethoxy)pyridin-2-one] | 3.93 | > 30 | 1.16 |
| O=c1cc(OCCOc2ccccc2)ccn1-c1cncc(F)c1 [Compound 27, 5′-fluoro-4-(2-phenoxyethoxy)-2H-[1,3′-bipyridin]-2-one] | 1.87 | > 30 | 4.56 |
| N#Cc1cncc(-n2ccc(OCCOc3ccccc3)cc2=O)c1 [Compound 26, 2-oxo-4-(2-phenoxyethoxy)-2H-[1,3′-bipyridine]-5′-carbonitrile] | 3.41 | > 30 | -5.24 |
| O=c1cc(OCCOc2cccnc2Cl)ccn1-c1ccc(F)cc1 [Compound 48, 4-(2-((2-chloropyridin-3-yl)oxy)ethoxy)-1-(4-fluorophenyl)pyridin-2(1H)-one] | 5.56 | > 30 | -2.79 |
| N#Cc1ccc(-n2ccc(OCCOc3ccccc3)cc2=O)cc1 [Compound 24, 4-(2-oxo-4-(2-phenoxyethoxy)pyridin-1(2H)-yl)benzonitrile] | 3.17 | > 30 | 0.49 |
| O=c1cc(OCCOc2c(F)cccc2F)ccn1-c1ccc(F)cc1 [Compound 36, 4-(2-(2,6-difluorophenoxy)ethoxy)-1-(4-fluorophenyl)pyridin-2(1H)-one] | 3.18 | > 30 | -1.16 |
| O=c1cc(OCCS(=O)(=O)c2ccccc2)ccn1-c1ccc(F)cc1 [Compound 9, 1-(4-fluorophenyl)-4-(2-(phenylsulfonyl)ethoxy)pyridin-2(1H)-one] | > 30 |  |  |
| O=c1cc(OCCOc2ccccc2)ccn1-c1ccncc1 [Compound 13, 4-(2-phenoxyethoxy)-2H-[1,4′-bipyridin]-2-one] | > 30 | > 30 |  |
| O=c1cc(OCCOc2cccnc2F)ccn1-c1ccc(F)cc1 [Compound 40, 1-(4-fluorophenyl)-4-(2-((2-fluoropyridin-3-yl)oxy)ethoxy)pyridin-2(1H)-one] | 4.74 | > 30 | -4.22 |
| O=c1cc(OCCCc2ccccc2)ccn1-c1ccc(F)cc1 [Compound 2, 1-(4-fluorophenyl)-4-(3-phenylpropoxy)pyridin-2(1H)-one] | 5.41 | > 30 | 1.95 |
| COCc1ccc(OCCOc2ccn(-c3ccc(F)cc3)c(=O)c2)cc1 [Compound 43, 1-(4-fluorophenyl)-4-(2-(4-(methoxymethyl)phenoxy)ethoxy)pyridin-2(1H)-one] | > 10 | > 30 | 37.3 |
| N#Cc1cccc(OCCOc2ccn(-c3ccc(F)cc3)c(=O)c2)n1 [Compound 59, 6-(2-((1-(4-fluorophenyl)-2-oxo-1,2-dihydropyridin-4-yl)oxy)ethoxy)picolinonitrile] | > 10 | > 30 | 35.9 |
| O=c1cc(OCCOC2CCCC2)ccn1-c1ccc(F)cc1 [Compound 6, 4-(2-(cyclopentyloxy)ethoxy)-1-(4-fluorophenyl)pyridin-2(1H)-one] | > 30 |  |  |
| N#Cc1ccc(OCCOc2ccn(-c3ccc(F)cc3)c(=O)c2)nc1 [Compound 58, 6-(2-((1-(4-fluorophenyl)-2-oxo-1,2-dihydropyridin-4-yl)oxy)ethoxy)nicotinonitrile] | 1.38 | > 30 | 1.06 |
| O=c1cc(OCCOc2ccccc2Cl)ccn1-c1ccc(F)cc1 [Compound 37, 4-(2-(2-chlorophenoxy)ethoxy)-1-(4-fluorophenyl)pyridin-2(1H)-one] | 1.84 | > 30 | 2.05 |
| O=c1cc(OCCOc2ccccc2)cnn1-c1ccc(F)cc1 [Compound 29, 2-(4-Fluorophenyl)-5-(2-phenoxyethoxy)pyridazin-3(2H)-one] | 3.87 | > 30 | 5.86 |
| O=c1cc(OCCOc2ccc(F)cc2F)ccn1-c1ccc(F)cc1 [Compound 34, 4-(2-(2,4-difluorophenoxy)ethoxy)-1-(4-fluorophenyl)pyridin-2(1H)-one] | 1.45 | > 30 | 1.32 |
| O=c1cc(OCCOc2ccccc2)ccn1-c1cccc(F)n1 [Compound 12, 6′-fluoro-4-(2-phenoxyethoxy)-2H-[1,2′-bipyridin]-2-one] | > 10 | > 30 | 33.2 |
| CN(CCOc1ccn(-c2ccc(F)cc2)c(=O)c1)c1ccccc1 [Compound 4, 1-(4-fluorophenyl)-4-(2-(methyl(phenyl)amino)ethoxy)pyridin-2(1H)-one] | 4 | > 30 | 0 |
| O=c1cc(OCCOc2ccccn2)ccn1-c1ccc(F)cc1 [Compound 50, 1-(4-fluorophenyl)-4-(2-(pyridin-2-yloxy)ethoxy)pyridin-2(1H)-one] | 1.94 | > 30 | -0.52 |
| O=c1cc(OCCOc2cnccc2Cl)ccn1-c1ccc(F)cc1 [Compound 47, 4-(2-((4-chloropyridin-3-yl)oxy)ethoxy)-1-(4-fluorophenyl)pyridin-2(1H)-one] | > 10 | > 30 | 36.7 |
| O=c1cc(OCCOC2CCCCC2)ccn1-c1ccc(F)cc1 [Compound 7, 4-(2-(cyclohexyloxy)ethoxy)-1-(4-fluorophenyl)pyridin-2(1H)-one] | > 10 |  | 15.5 |
